Test results published in patent US10045990B2, “ERBB4 inhibitors and methods of use thereof” (Arizona Board of Regents on behalf of Arizona State …, priority 2015, dated 2018).
Like-named read-outs stand apart in the source and are kept apart here.

Legend:
OVSAHO = details: 1 uM, 7 days, Trypan blue exclusion, vs DMSO
BCRABL = experiment: NAPPA array kinase autophosphorylation assay; format: biochemical, human; details: DMSO = 100
H146 = experiment: cell growth / viable cell count in ERBB4-overexpressing, BTK-negative cell line; format: cell-based, human
BTK [1] = target: T1, BTK (Homo sapiens, UniProt Q06187); details: 1 uM, radioactive ATP (FIG. 3A)
Method: (§1) First, radioactive kinase assays were performed with purified protein kinases incubated with radioactive ATP and increasing concentrations of kinase inhibitors. The kinase activity was measured through the levels of radioactive phosphorylation present in each kinase.

YES1 [2] = target: T2, YES1 (Homo sapiens, UniProt P07947); experiment: NAPPA array kinase autophosphorylation assay; format: biochemical; details: DMSO = 100
T2 construct: made in house; host or cells: human cell-free coupled transcription-translation (1-Step Human Coupled IVT), on the slide

ERBB4 = ERBB4 (Homo sapiens, UniProt Q15303); experiment: radioactive kinase assay with purified kinase; format: biochemical; details: 1 uM, radioactive ATP (FIG. 3A)
Method: as §1

COV434 = details: 1 uM, 7 days, Trypan blue exclusion, vs DMSO
Abl1 = Abl1 (Homo sapiens, UniProt P00519); details: DMSO = 100
Method: (§2) Protein microarrays were generated using NAPPA (Nucleic acid programmable protein array) methodology, which permits the use of freshly expressed proteins for functional assays (FIG. 1). In NAPPA, cDNAs coding for the target of interest are cloned into an expression vector, which generates a fusion (Halo Tag, GST, etc.) to the target, and spotted onto a glass slide. Then to each spot, a HeLa cell in vitro transcription-translation reagent is added, whereby the fusion gene is transcribed into mRNA and translated. The nascent proteins are captured to the slide with antibody to the fusion partner (i.e., HaloTag-ligand, α-GST antibody) that is spotted adjacent to the DNA during the manufacture of the array. This method allows for up to thousands of protein targets to be arrayed. NAPPA microarrays can be expressed using an in vitro transcription and translation system (IVTT), and the anti-tag antibody captures newly synthesized proteins. Following expression, the microarrays were treated with phosphatase to remove any phosphorylation that occurred during the expression of the proteins.
(§3) De-phosphorylated arrays were then incubated with kinase buffer containing various concentrations of ATP and/or kinase inhibitors. The kinase activity was measured as end point assay using anti-phopho tyrosine antibody linked to cy3 as the detecting agent (FIG. 2). The data was normalized using positive control features present in each array.
(§4) NAPPA kinase microarrays we generated with virtually all protein-tyrosine kinases from the human genome. The coding sequence for each tyrosine kinase was clone into an expression plasmid and immobilized on the microarray surface, with one protein kinase per feature. After the microarray was expressed, any phosphorylation that occurred during the expression step was removed by a treatment with lambda phosphatase.
(§5) Unphosphorylated microarrays were then incubated with a kinase buffer (25 mM Tris-HCl (pH 7.5), 5 mM beta-glycerophosphate, 2 mM dithiothreitol (DTT), 0.1 mM Na3VO4, 10 mM MgCl2) supplemented with […] and/or kinase inhibitors (concentration ranging from 0-10 uM). The kinase autophosphorylation activity was measured through the levels of phosphorylation present in each feature and was detected by phospho-tyrosine antibody. […] Staurosporine is a pan kinase inhibitor used as a control.
(§6) NAPPA arrays suitable for measuring the activity of protein kinases and evaluating the selectivity of kinase inhibitors were produced using a variation of the published protocol (Proteomics Clin Appl. 2013 June; 7(5-6):372-7.). Briefly, NAPPA printing mix was prepared with plasmid DNA coding for genes of interest, anti-flag antibody, cross-linker and poly-lysine. […]

BTK [3] = target: T1, BTK; details: DMSO = 100
Method: as §2, §3, §4, §5, §6

1321N1 = experiment: cell growth / viable cell count in ERBB4-overexpressing, BTK-negative cell line; format: cell-based, human
EPHA7 = target: T3, EPHA7 (Homo sapiens, UniProt Q15375); experiment: NAPPA array kinase autophosphorylation assay; format: biochemical; details: DMSO = 100
T3 construct: made in house; host or cells: human cell-free coupled transcription-translation (1-Step Human Coupled IVT), on the slide
Method: as §2, §3, §4, §5
(§7) NAPPA arrays suitable for measuring the activity of protein kinases and evaluating the selectivity of kinase inhibitors were produced using a variation of the published protocol (Proteomics Clin Appl. 2013 June; 7(5-6):372-7.). Briefly, NAPPA printing mix was prepared with plasmid DNA coding for genes of interest, anti-flag antibody, cross-linker and poly-lysine. Samples were agitated for 90 minutes at 1200 rpm at RT and printed in quadruplicate in aminopropyltriethoxysilane coated glass slides.
(§8) Arrays were stored in an airtight container at room temperature until use.

FGFR1 = target: T4, FGFR1 (Homo sapiens, UniProt P11362); experiment: NAPPA array kinase autophosphorylation assay; format: biochemical; details: DMSO = 100
T4 construct: made in house; host or cells: human cell-free coupled transcription-translation (1-Step Human Coupled IVT), on the slide
Method: as §2, §3, §4, §5, §7, §8

FGFR4 = target: T5, FGFR4 (Homo sapiens, UniProt P22455); experiment: NAPPA array kinase autophosphorylation assay; format: biochemical; details: DMSO = 100
T5 construct: made in house; host or cells: human cell-free coupled transcription-translation (1-Step Human Coupled IVT), on the slide
Method: as §2, §3, §4, §5, §7, §8

EGFR/ERBB1 = target: T6, EGFR/ERBB1 (Homo sapiens, UniProt P00533); experiment: NAPPA array kinase autophosphorylation assay; format: biochemical; details: DMSO = 100
T6 construct: made in house; host or cells: human cell-free coupled transcription-translation (1-Step Human Coupled IVT), on the slide
Method: as §2, §3, §4, §5, §7, §8

HCK = target: T7, HCK (Homo sapiens, UniProt P08631); experiment: NAPPA array kinase autophosphorylation assay; format: biochemical; details: DMSO = 100
T7 construct: made in house; host or cells: human cell-free coupled transcription-translation (1-Step Human Coupled IVT), on the slide
Method: as §2, §3, §4, §5, §7, §8

EPHA1 = target: T8, EPHA1 (Homo sapiens, UniProt P21709); experiment: NAPPA array kinase autophosphorylation assay; format: biochemical; details: DMSO = 100
T8 construct: made in house; host or cells: human cell-free coupled transcription-translation (1-Step Human Coupled IVT), on the slide
Method: as §2, §3, §4, §5, §7, §8

EPHA3 = target: T9, EPHA3 (Homo sapiens, UniProt P29320); experiment: NAPPA array kinase autophosphorylation assay; format: biochemical; details: DMSO = 100
T9 construct: made in house; host or cells: human cell-free coupled transcription-translation (1-Step Human Coupled IVT), on the slide
Method: as §2, §3, §4, §5, §7, §8

SYK = SYK (Homo sapiens, UniProt P43405); experiment: NAPPA array kinase autophosphorylation assay; format: biochemical; details: DMSO = 100
Method: as §2, §3, §4, §5, §7, §8

TESK2 = target: T10, TESK2 (Homo sapiens, UniProt Q96S53); experiment: NAPPA array kinase autophosphorylation assay; format: biochemical; details: DMSO = 100
T10 construct: made in house; host or cells: human cell-free coupled transcription-translation (1-Step Human Coupled IVT), on the slide
Method: as §2, §3, §4, §5, §7, §8

DYRK2 = target: T11, DYRK2 (Homo sapiens, UniProt Q92630); experiment: NAPPA array kinase autophosphorylation assay; format: biochemical; details: DMSO = 100
T11 construct: made in house; host or cells: human cell-free coupled transcription-translation (1-Step Human Coupled IVT), on the slide
Method: as §2, §3, §4, §5, §7, §8

Tec = target: T12, Tec (Homo sapiens, UniProt P42680); experiment: NAPPA array kinase autophosphorylation assay; format: biochemical; details: DMSO = 100
T12 construct: made in house; host or cells: human cell-free coupled transcription-translation (1-Step Human Coupled IVT), on the slide
Method: as §2, §3, §4, §5, §7, §8

ERBB3/HER3 = target: T13, ERBB3/HER3 (Homo sapiens, UniProt P21860); experiment: NAPPA array kinase autophosphorylation assay; format: biochemical; details: DMSO = 100
T13 construct: made in house; host or cells: human cell-free coupled transcription-translation (1-Step Human Coupled IVT), on the slide
Method: as §2, §3, §4, §5, §7, §8

TNK2 = target: T14, TNK2 (Homo sapiens, UniProt Q07912); experiment: NAPPA array kinase autophosphorylation assay; format: biochemical; details: DMSO = 100
T14 construct: made in house; host or cells: human cell-free coupled transcription-translation (1-Step Human Coupled IVT), on the slide
Method: as §2, §3, §4, §5, §7, §8

ERBB4/HER4 = target: T15, ERBB4/HER4 (Homo sapiens, UniProt Q15303); experiment: NAPPA array kinase autophosphorylation assay; format: biochemical; details: DMSO = 100
T15 construct: made in house; host or cells: human cell-free coupled transcription-translation (1-Step Human Coupled IVT), on the slide
Method: as §2, §3, §4, §5, §7, §8

OVKATE = details: 1 uM, 7 days, Trypan blue exclusion, vs DMSO
COV318 = experiment: cell growth / viable cell count in ERBB4-overexpressing, BTK-negative cell line; format: cell-based, human
H522 = experiment: as above; format: cell-based, human
KLE = experiment: as above; format: cell-based, human; set-up: % Survival: dose or concentration left out as unconfirmed
YES1 [4] = target: T2, YES1; experiment: NAPPA array kinase autophosphorylation assay; format: biochemical; details: Yes1 (second entry), DMSO = 100
H661 = experiment: cell growth / viable cell count in ERBB4-overexpressing, BTK-negative cell line; format: cell-based, human
HEC59 = experiment: as above; format: cell-based, human; set-up: % Survival: dose or concentration left out as unconfirmed
responsive cell lines = experiment: cell based assays, responsive cell lines; set-up: species or system human
H716 = experiment: cell growth / viable cell count in ERBB4-overexpressing, BTK-negative cell line; format: cell-based, human
[5] = 0, 1 nM, 10 nM, 100 nM, 1 uM or 10 uM for 7 days
[6] = 1 uM, 7 days, Trypan blue exclusion, vs DMSO
[7] = percentage of viable cells after a 24-hour treatment of 1 nM ibrutinib

T1 sequence (Q06187 whole entry): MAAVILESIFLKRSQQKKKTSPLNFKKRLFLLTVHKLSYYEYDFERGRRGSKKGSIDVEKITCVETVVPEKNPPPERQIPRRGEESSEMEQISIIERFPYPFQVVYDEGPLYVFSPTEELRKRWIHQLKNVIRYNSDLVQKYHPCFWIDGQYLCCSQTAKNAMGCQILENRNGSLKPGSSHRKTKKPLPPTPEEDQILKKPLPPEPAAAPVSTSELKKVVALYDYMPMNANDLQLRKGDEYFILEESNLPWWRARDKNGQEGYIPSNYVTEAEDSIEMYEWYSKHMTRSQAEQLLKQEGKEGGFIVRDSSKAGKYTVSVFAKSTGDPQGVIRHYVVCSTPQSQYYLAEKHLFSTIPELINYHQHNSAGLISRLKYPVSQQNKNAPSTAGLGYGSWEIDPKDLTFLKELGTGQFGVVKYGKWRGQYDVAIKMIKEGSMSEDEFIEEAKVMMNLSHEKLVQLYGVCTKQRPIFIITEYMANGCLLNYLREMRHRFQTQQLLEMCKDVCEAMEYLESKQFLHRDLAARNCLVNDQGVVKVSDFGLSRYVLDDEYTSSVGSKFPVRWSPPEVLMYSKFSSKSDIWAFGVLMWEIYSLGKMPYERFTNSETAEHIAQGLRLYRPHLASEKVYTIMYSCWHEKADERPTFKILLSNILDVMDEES
T2 sequence (P07947 whole entry): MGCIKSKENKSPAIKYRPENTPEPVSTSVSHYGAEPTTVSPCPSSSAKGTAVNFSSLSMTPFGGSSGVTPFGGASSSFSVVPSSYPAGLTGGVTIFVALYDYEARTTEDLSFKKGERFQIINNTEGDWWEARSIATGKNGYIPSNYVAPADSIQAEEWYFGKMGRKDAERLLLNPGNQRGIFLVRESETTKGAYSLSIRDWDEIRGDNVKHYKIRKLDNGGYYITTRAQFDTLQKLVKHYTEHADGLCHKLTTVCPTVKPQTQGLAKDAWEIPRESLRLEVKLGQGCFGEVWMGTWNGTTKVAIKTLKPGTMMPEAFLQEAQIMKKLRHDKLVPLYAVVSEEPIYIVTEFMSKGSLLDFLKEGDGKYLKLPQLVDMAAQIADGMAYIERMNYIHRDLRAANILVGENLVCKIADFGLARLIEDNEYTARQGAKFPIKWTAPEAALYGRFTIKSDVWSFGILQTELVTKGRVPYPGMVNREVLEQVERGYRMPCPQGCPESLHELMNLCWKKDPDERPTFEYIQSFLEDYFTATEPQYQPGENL
Sequence of Abl1 (P00519 whole entry, the tested form may be a part): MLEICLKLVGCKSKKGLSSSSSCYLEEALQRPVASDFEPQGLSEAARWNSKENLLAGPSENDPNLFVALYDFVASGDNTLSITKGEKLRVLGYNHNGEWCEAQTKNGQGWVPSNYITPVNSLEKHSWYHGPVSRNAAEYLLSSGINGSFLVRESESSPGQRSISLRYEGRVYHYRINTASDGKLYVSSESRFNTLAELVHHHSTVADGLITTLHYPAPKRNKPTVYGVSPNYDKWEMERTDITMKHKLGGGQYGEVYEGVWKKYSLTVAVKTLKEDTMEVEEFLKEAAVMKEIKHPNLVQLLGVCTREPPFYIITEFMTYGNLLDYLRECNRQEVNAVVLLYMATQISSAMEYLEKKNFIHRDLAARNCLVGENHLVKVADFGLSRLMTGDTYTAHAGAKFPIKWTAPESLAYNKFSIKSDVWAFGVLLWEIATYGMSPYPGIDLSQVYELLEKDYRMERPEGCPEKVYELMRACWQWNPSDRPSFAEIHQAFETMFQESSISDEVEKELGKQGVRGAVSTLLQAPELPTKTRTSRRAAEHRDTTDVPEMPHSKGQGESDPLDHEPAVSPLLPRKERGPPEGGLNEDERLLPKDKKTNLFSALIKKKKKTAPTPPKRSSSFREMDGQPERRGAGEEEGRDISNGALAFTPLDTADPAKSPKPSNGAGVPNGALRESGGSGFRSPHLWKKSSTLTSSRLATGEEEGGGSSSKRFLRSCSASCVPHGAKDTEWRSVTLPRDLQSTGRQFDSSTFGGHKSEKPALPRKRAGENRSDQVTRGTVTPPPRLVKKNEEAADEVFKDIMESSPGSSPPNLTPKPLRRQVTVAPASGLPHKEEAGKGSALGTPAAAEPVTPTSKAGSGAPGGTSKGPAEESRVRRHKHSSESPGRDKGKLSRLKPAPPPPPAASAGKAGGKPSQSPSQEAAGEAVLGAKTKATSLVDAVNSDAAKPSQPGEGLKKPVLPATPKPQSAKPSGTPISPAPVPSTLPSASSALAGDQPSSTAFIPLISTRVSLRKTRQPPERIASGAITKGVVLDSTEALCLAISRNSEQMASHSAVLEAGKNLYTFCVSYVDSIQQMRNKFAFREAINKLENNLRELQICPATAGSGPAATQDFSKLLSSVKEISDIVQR
T9 sequence (P29320 21-983): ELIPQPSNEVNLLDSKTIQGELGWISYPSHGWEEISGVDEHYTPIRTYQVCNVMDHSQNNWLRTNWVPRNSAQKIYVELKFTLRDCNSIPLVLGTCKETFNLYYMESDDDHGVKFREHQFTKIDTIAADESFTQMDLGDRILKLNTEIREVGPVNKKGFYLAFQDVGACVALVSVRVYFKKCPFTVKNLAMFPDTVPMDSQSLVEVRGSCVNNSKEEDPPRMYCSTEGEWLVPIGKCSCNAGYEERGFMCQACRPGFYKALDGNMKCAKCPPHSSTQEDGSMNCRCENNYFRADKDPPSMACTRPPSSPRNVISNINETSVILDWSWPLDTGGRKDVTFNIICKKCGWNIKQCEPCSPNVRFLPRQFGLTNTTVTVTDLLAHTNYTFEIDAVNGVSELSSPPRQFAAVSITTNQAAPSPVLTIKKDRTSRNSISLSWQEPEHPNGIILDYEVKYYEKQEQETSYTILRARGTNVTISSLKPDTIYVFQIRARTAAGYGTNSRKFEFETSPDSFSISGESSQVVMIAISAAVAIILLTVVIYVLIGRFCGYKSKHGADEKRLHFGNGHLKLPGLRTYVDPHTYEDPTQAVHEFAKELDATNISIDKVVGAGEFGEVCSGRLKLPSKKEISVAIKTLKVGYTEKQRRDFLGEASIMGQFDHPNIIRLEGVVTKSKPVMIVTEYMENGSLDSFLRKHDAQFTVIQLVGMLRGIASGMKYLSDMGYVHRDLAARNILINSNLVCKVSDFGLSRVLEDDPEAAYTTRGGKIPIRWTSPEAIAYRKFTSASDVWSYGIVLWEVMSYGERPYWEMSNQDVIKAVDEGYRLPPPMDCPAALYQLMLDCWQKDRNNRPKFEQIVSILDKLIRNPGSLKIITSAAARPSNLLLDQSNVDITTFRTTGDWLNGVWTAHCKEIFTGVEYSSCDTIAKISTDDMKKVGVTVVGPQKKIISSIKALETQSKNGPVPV
T14 sequence (Q07912 whole entry): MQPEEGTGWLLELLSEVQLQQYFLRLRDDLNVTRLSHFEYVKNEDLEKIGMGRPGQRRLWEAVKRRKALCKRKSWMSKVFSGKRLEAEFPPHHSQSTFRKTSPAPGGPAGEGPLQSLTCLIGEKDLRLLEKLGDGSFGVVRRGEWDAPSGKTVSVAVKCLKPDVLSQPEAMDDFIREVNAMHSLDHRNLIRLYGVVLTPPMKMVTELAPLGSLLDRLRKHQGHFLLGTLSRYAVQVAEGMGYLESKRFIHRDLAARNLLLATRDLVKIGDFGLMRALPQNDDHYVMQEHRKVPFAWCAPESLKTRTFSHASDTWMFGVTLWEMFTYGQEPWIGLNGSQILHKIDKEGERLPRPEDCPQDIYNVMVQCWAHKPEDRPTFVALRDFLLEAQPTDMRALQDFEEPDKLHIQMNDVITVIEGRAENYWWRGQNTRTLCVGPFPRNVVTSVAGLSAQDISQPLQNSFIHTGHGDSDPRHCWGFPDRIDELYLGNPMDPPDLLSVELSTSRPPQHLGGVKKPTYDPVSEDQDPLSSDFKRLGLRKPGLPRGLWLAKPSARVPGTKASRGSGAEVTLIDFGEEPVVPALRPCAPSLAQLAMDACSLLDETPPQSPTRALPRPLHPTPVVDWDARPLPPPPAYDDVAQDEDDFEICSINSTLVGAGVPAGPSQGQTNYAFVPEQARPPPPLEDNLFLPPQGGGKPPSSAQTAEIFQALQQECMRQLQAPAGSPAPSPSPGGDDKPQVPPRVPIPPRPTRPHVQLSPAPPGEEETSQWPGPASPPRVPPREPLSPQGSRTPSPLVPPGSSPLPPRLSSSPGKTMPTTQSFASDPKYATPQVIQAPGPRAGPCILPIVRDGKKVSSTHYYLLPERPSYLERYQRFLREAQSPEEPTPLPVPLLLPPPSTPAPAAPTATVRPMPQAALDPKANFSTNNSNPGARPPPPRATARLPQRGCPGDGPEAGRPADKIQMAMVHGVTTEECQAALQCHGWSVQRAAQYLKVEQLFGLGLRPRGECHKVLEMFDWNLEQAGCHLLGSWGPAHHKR
Sequence of BCRABL (P00519 229-512 limits assumed): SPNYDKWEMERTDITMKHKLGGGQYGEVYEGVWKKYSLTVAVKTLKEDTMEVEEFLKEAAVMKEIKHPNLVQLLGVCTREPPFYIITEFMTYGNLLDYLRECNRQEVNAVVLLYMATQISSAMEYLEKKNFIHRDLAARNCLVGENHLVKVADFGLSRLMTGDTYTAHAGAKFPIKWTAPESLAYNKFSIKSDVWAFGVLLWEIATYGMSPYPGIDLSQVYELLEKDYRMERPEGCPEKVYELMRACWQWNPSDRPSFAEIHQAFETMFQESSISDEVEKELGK

Ibrutinib
growth inhibition rate (OVSAHO): 37%
kinase activity (%) (BCRABL; 0.1 uM Ibrutinib): 92.0%
kinase activity (%) (BCRABL; 1 uM Ibrutinib): 93.1%
growth inhibition rate (H146; H146, 1 uM, 7 days, Trypan blue exclusion, vs DMSO): 0%
% Survival (H146; H146, percentage of viable cells after a 24-hour treatment of 1 nM ibrutinib): 100.0%
sensitivity of cell line (H146; H416, 0, 1 nM, 10 nM, 100 nM, 1 uM or 10 uM for 7 days): apparently resistant
activity inhibited (BTK [1]): more than 80%
kinase activity (%) (YES1 [2]; 0.1 uM Ibrutinib): 99.3%
kinase activity (%) (YES1 [2]; 1 uM Ibrutinib): 90.9%
activity inhibited (ERBB4): more than 80%
growth inhibition rate (COV434): 15%
kinase activity (%) (Abl1; 0.1 uM Ibrutinib): 101.5%
kinase activity (%) (Abl1; 1 uM Ibrutinib): 104.3%
kinase activity (%) (BTK [3]; 0.1 uM Ibrutinib): 38.3%
kinase activity (%) (BTK [3]; 1 uM Ibrutinib): 5.5%
sensitivity of cell line (1321N1; [5]): apparently resistant
growth inhibition rate (1321N1; [6]): 10%
% Survival (1321N1; [7]): 89.7%
kinase activity (%) (EPHA7; 0.1 uM Ibrutinib): 92.3%
kinase activity (%) (EPHA7; 1 uM Ibrutinib): 94.9%
kinase activity (%) (FGFR1; 0.1 uM Ibrutinib): 98.8%
kinase activity (%) (FGFR1; 1 uM Ibrutinib): 105.8%
kinase activity (%) (FGFR4; 0.1 uM Ibrutinib): 81.5%
kinase activity (%) (FGFR4; 1 uM Ibrutinib): 99.1%
kinase activity (%) (EGFR/ERBB1; 0.1 uM Ibrutinib): 81.2%
kinase activity (%) (EGFR/ERBB1; 1 uM Ibrutinib): 89.7%
kinase activity (%) (HCK; 0.1 uM Ibrutinib): 102.1%
kinase activity (%) (HCK; 1 uM Ibrutinib): 105.0%
kinase activity (%) (EPHA1; 0.1 uM Ibrutinib): 87.2%
kinase activity (%) (EPHA1; 1 uM Ibrutinib): 99.1%
kinase activity (%) (EPHA3; 0.1 uM Ibrutinib): 89.1%
kinase activity (%) (EPHA3; 1 uM Ibrutinib): 101.3%
kinase activity (%) (SYK; 0.1 uM Ibrutinib): 90.5%
kinase activity (%) (SYK; 1 uM Ibrutinib): 109.7%
kinase activity (%) (TESK2; 0.1 uM Ibrutinib): 85.8%
kinase activity (%) (TESK2; 1 uM Ibrutinib): 83.5%
kinase activity (%) (DYRK2; 0.1 uM Ibrutinib): 97.3%
kinase activity (%) (DYRK2; 1 uM Ibrutinib): 82.3%
kinase activity (%) (Tec; 0.1 uM Ibrutinib): 68.7%
kinase activity (%) (Tec; 1 uM Ibrutinib): 62.0%
kinase activity (%) (ERBB3/HER3; 0.1 uM Ibrutinib): 100.0%
kinase activity (%) (ERBB3/HER3; 1 uM Ibrutinib): 206.1%
kinase activity (%) (TNK2; 0.1 uM Ibrutinib): 99.9%
kinase activity (%) (TNK2; 1 uM Ibrutinib): 86.9%
kinase activity (%) (ERBB4/HER4; 0.1 uM Ibrutinib): 67.1%
kinase activity (%) (ERBB4/HER4; 1 uM Ibrutinib): 44.1%
growth inhibition rate (OVKATE): 45%
sensitivity of cell line (COV318; [5]): apparently resistant
growth inhibition rate (COV318; [6]): 8%
% Survival (COV318; [7]): 91.5%
sensitivity of cell line (H522; [5]): very sensitive
growth inhibition rate (H522; [6]): 60%
% Survival (H522; [7]): 41.0%
sensitivity of cell line (KLE; [5]): very sensitive
growth inhibition rate (KLE; [6]): 73%
% Survival (KLE; percentage of viable cells after ibrutinib): 27.2%
kinase activity (%) (YES1 [4]; 0.1 uM Ibrutinib): 101.6%
kinase activity (%) (YES1 [4]; 1 uM Ibrutinib): 97.6%
sensitivity of cell line (H661; [5]): very sensitive
growth inhibition rate (H661; [6]): 72%
% Survival (H661; [7]): 28.2%
growth inhibition rate (HEC59; HEC59, 1 uM, 7 days, Trypan blue exclusion, vs DMSO): 31%
% Survival (HEC59; HEC59, percentage of viable cells): 68.8%
sensitivity of cell line (HEC59; Hec59, 0, 1 nM, 10 nM, 100 nM, 1 uM or 10 uM for 7 days): apparently resistant
inhibition in the responsive cell lines (responsive cell lines): 60-75%
sensitivity of cell line (H716; [5]): very sensitive
growth inhibition rate (H716; [6]): 75%
% Survival (H716; [7]): 25.5%
